Tests used:
[1] = parameters: species or system mice; conditions: mouse, in vivo, iv
Excerpt: (§1) The biocompatibility of hematin for injection was comprehensively investigated, for example, via blood routine examination, histological analysis, and body weight monitoring.
Another group of mice injected with PBS were used as control.
Meanwhile, blood samples were collected at different intervals after treatment with HeOH-PEG. […] Another group of mice injected of PBS were used as control.

[2] = T1 relaxivity (r1) measurement and T1-weighted in vitro MR imaging; format: physicochemical
Description: Hematin was studied for its properties in MR imaging.
(§2) FIG. 1 is a graph showing r1 values and 1/T1 values according to Fe concentrations of metalloporphyrin-based MRI-CAs after dispersion in water. […] To further evaluate its MRI performance in vivo, hematin at a dose of 2 mg/kg/day, which is within the recommended range for clinical use, was administered into the tail veins of nude mice.
The composition of the prepared He-PEG was confirmed by NMR spectroscopy. […] The ^1H NMR spectrum of the He-PEG nanoparticles confirmed the successful conjugation of He with PEG2000. The magnetic property of the produced He-PEG particles was determined by measuring the longitudinal relaxivity values, which referred to the slope of the 1/T1 (R1) plot versus Fe ion concentration.
FIGS. 5 and 6 show r1 values and 1/T1 values according to Fe concentrations of He—OH after dispersion in water.

[3] = In vivo MR imaging / MR angiography after tail vein injection; conditions: nude mice, 2 mg/kg/day, FIG. 2
Description: as §2
To study the potential application of HeOH-PEG for in vivo MRI, a series of MR imaging were performed at different time points after HeOH-PEG was injected via tail vein into health node mice (500 μL, 0.48 mmol […] per kg mice). FIG. 11 is the 3D image of MR angiography acquired from the mouse after intravenous injection with HeOH-PEG.
The MR signal enhancement with excellent contrast in the vasculature lasted until 60 min post injection.

[4] = Histological analysis (hematoxylin and eosin) of major organs; format: in vivo; conditions: mice; 14 days after administration
Description: as §1
Subsequently, hematoxylin and eosin examinations were performed on major organs (e.g., heart, liver, spleen, lung, and kidney) collected from healthy mice and those treated with HeOH-PEG. […] No significant differences were found between the cellular morphology of the studied organs in the HeOH-PEG treated group and the control group (FIG. 10).

[5] = Body weight monitoring after tail vein injection; format: in vivo; conditions: mice, versus PBS control, 2 weeks
Excerpt: as §1

[6] = only in a rare case; cited from earlier work

C=CC1=C(C)c2cc3[n-]c(cc4[n-]c(cc5nc(cc1n2)C(C)=C5C=C)c(C)c4CCC(=O)O)c(CCC(=O)O)c3C.O.[Fe+2] [hematin]
blood routine examination parameters versus normal range [1]: within the normal range
T1 relaxivity value ([2]; 3.0 T MR scanner, dispersion in water, FIG. 1): 0.424 mM⁻¹ s⁻¹
r1 value (longitudinal relaxivity, slope of 1/T1 versus Fe ion concentration) ([2]; dispersion in water): 0.424 s^−1 mM^−1 Fe
T1-weighted in vitro MR imaging signal ([2]; various Fe concentrations): concentration-dependent brightening effect
T1 signal in vivo after intravenous administration [3]: increase in the T1 signal was clearly observed in the heart and large vessel
histological changes in heart, liver, spleen, lung and kidney [4]: no obvious histological changes
body weight change [5]: no significant changes compared to the control group
excessive hematin dose reported to induce reversible renal shutdown [6]: 12.2 mg/kg

From US12447216B2, “Biogenic hemin-based MRI contrast agents, and compositions and methods thereof” (University of Massachusetts, priority 2017, dated 2025)
